Legend:
adiponectin mRNA = assay: Measurement of adiponectin mRNA by quantitative RT-PCR in 3T3-L1 adipocytes; type: cell-based; settings: test compound 10 μM, 48 hours then 24 hours after replacing the medium, 36B4 internal control
Protocol: Preadipocyte cell line 3T3-L1 was purchased from the American Type Culture Collection (ATCC). […] Subsequently, the medium was replaced with fresh growth medium every 3 days, and the 3T3-L1 adipocytes were prepared on day 10 after the start of differentiation. Test compounds that were poorly soluble in water were used after dissolving in DMSO. Test compounds that were easily soluble in water were dissolved in sterile water followed by addition of the same amount of DMSO as that used for the aforementioned poorly water-soluble test compounds. In addition, in the case of test compounds that are poorly soluble in water, the test compound may be dissolved in ethanol and used following the addition of 0.1 N aqueous sodium hydroxide solution after shaking as necessary. After allowing the 3T3-L1 cells to adequately differentiate into adipocytes, a test compound was added to the medium to a final concentration of 10 μM followed by culturing the cells for 48 hours. The cells were additionally cultured for 24 hours after replacing the medium. […] The synthesized cDNA was amplified using FastStrand DNA Master SYBR Green I (Roche Diagnostics), and the amplified PCR product was detected with LightCycler (Roche Diagnostics). […] The adiponectin mRNA amount was measured according to quantitative RT-PCR.

secreted adiponectin = assay: Measurement of amount of secreted adiponectin in 3T3-L1 adipocyte culture supernatant by Western blotting; type: cell-based; settings: 3T3-L1 adipocytes culture supernatant, test compound 10 μM, 48 hours then 24 hours after replacing the medium; densitometer
Protocol: Preadipocyte cell line 3T3-L1 was purchased from the American Type Culture Collection (ATCC). […] Subsequently, the medium was replaced with fresh growth medium every 3 days, and the 3T3-L1 adipocytes were prepared on day 10 after the start of differentiation. Test compounds that were poorly soluble in water were used after dissolving in DMSO. Test compounds that were easily soluble in water were dissolved in sterile water followed by addition of the same amount of DMSO as that used for the aforementioned poorly water-soluble test compounds. In addition, in the case of test compounds that are poorly soluble in water, the test compound may be dissolved in ethanol and used following the addition of 0.1 N aqueous sodium hydroxide solution after shaking as necessary. After allowing the 3T3-L1 cells to adequately differentiate into adipocytes, a test compound was added to the medium to a final concentration of 10 μM followed by culturing the cells for 48 hours. The cells were additionally cultured for 24 hours after replacing the medium. […] Secretion of adiponectin into culture supernatant was detected by Western blotting. […] After washing the PVDF membrane, the adiponectin bands were detected using ECL Detection Reagents (Amersham-Pharmacia). The bands were quantified with a densitometer (Molecular Devices). The amounts of secreted adiponectin were analyzed by Western blotting.

[1] = test system: C57BL/6J mouse adipocytes; assay: Glucose uptake test using isolated adipocytes from pravastatin-dosed mice; type: in vivo
Protocol: (i) Epididymal adipose tissue was excised from a group administered with pravastatin for 16 weeks and a non-dosed group of C57BL/6J mice (n=5). The excised adipose tissue was handled under conditions of 37° C. at all times. The adipose tissue was cut into small pieces with a scissors, followed by the addition of medium (DMEM, 1 mM sodium pyruvate, 25 mM HEPES pH 7.4, 0.1% BSA, 100 u/ml penicillin, 0.1 mg/ml streptomycin) containing 1 mg/ml of collagenase I (Worshington), and shaking at 37° C. and 80 rpm. Following the reaction, 2.5 volumes of the aforementioned medium were added, the adipocytes were screened out by passing the cell suspension through a 260 μm mesh sieve, and again passed through a 100 μm mesh sieve to prepare an adipocyte suspension. […] Subsequently, 0.6 μCi of ^3H-labeled 2-deoxyglucose was added and allowed to react for 30 minutes. Following the reaction, the cell suspension was immediately transferred to a centrifuge tube containing silicone oil and centrifuged. After cutting out the oil layer of the upper layer containing adipocytes with a knife, it was transferred to a glass vial containing 4 ml of Hionic Fluor (Perkin-Elmer) liquid scintillation counter cocktail followed by measurement of specific radioactivity. The amount of measured radioactivity of the ^3H-2-deoxyglucose was used as an indicator of the amount of glucose taken up by the cells. (4) Results

C57BL/6J mice [2] = assay: Insulin tolerance test using pravastatin-dosed mice; type: in vivo; settings: C57BL/6J mice dosed in feed for 15 weeks, fasted 2 hours, insulin 0.5 u/kg intraperitoneally; significantly lower than non-dose group (148 mg/dl)
Protocol: A group administered with pravastatin by mixing in feed for 15 weeks and a non-dosed group of C57BL/6J mice (n=5) were fasted for 2 hours. After measuring the body weight of each animal, insulin (Humalin, Lilly) was administered intraperitoneally at 0.5 u/kg, and blood samples were collected from the tail vein immediately before the start of administration and at 15, 30, 60 and 90 minutes after the start of administration followed by measurement of blood glucose levels.

C57BL/6J mice [3] = assay: Administration of pravastatin to mice in feed: blood glucose levels and adiponectin concentrations; type: in vivo; settings: 0.06% (wt/wt) in feed for 15 weeks
Protocol: The body weights of the animals were measured and blood samples were collected on the day the test started, and the animals were divided into two groups of 5 animals per cage based on their body weights and blood glucose levels. […] Blood samples were collected from the tail vein in an amount equal to one heparinized capillary tube.
The amount of feed and general behaviour were checked at least once a day.
Blood glucose levels were measured on the days when blood samples were collected.

SMILES | amount of adiponectin mRNA relative to the control group (adiponectin mRNA) [times] | amount of secreted adiponectin relative to the control group (secreted adiponectin) [times] | insulin sensitivity versus non-dose group ([1]; adipocytes isolated from C57BL/6J mice dosed for 16 weeks) | amount of glucose uptake relative to non-dose group ([1]; epididymal adipocytes isolated from C57BL/6J mice dosed for 16 weeks, insulin-induced 3H-2-deoxyglucose uptake) [times] | blood glucose level at 60 minutes after administration of insulin (C57BL/6J mice [2]) [mg/dL] | blood glucose levels, dose group versus non-dose group (C57BL/6J mice [3]) | adiponectin concentrations in dose group relative to non-dose group (C57BL/6J mice [3]; blood) [times]
CC(C)c1nc(N(C)S(C)(=O)=O)nc(-c2ccc(F)cc2)c1/C=C/[C@@H](O)C[C@@H](O)CC(=O)O [rosuvastatin, (+)-(3R,5S)-7-[4-(4-fluorophenyl)-6-isopropyl-2-(N-methyl-N-methanesulfonylamino)pyrimidin-5-yl]-3,5-dihydroxy-6(E)-heptenoic acid] | 1.3 | 1.6 | – | – | – | – | –
CC[C@H](C)C(=O)O[C@H]1C[C@H](O)C=C2C=C[C@H](C)[C@H](CC[C@@H](O)C[C@@H](O)CC(=O)O)[C@H]21 [pravastatin, (+)-(3R,5R)-3,5-dihydroxy-7-[(1S,2S,6S,8S,8aR)-6-hydroxy-2-methyl-8-[(S)-2-methylbutyryloxy]-1,2,6,7,8,8a-hexahydro-1-naphthyl]heptanoic acid] | 1.6 | 1.7 | increased insulin sensitivity | 1.4 | 110 | no significant differences | 1.28

Reference: patent US9345671B2, “Adiponectin production enhancer” (Daiichi Sankyo Company, Limited, priority 2003, dated 2016)
